Like-named read-outs stand apart in the source and are kept apart here.
How the values were obtained:
[1] = Hansen Solubility Parameters (D, P, H) and distance Ra of solvents (b)
Description: The oil phase of the emulsion includes the hydrophobic polymer of (a) dissolved in one or more solvents capable of solubilizing the hydrophobic polymer. The one or more solvent may include one or more solvents used to generate or solubilize the hydrophobic polymer, e.g., 2,2,4-trimethyl-1,3-pentanediol-monoisobutyrate. The one or more solvents may be a single solvent or a plurality of solvents.
[formula] • wherein • D1 is 16.8 MPa^0.5, • P1 is 4.8 MPa^0.5, and • H1 is 13.0 MPa^0.5.
In a preferred embodiment, the one or more solvents have a dispersion component (D), a polar component (P), a hydrogen bonding component (H), and a distance (Ra) of less than or equal to 9.9 MPa^0.5 per Hansen Solubility Parameters, wherein the distance (Ra) is defined by formula (I):
[formula] • wherein • D1 is 16.4 MPa^0.5, • P1 is 5.0 MPa^0.5, and • H1 is 11.7 MPa^0.5.
The solvent may be an oil. The term “oil” is intended to mean a non-aqueous compound, non-miscible in water, and liquid at 25° C. and atmospheric pressure (760 mmHg; 1.013×10^5 Pa). […] The solvents may include acetone. The solvents may include oleic acid. The solvents may include an oleic acid containing oil (such as a vegetable oil).

[2] = Hansen Solubility Parameters; cited from earlier work

For CCCCCCCC/C=C\CCCCCCCC(=O)O [Oleic Acid], the “Ra (Allowable Range)” value [1] is given as 7.27 MPa^0.5, the “Ra (Preferred Range)” value [1] is given as 5.98 MPa^0.5 and the “D (dispersion component)” value [2] is given as 16 MPa^0.5. The “H (hydrogen bonding component)” value [2] was 6.2 MPa^0.5 and the “P (polar component)” value [2] was 2.8 MPa^0.5.
For CCO [Ethanol], the “Ra (Allowable Range)” value [1] is given as 7.81 MPa^0.5, the “Ra (Preferred Range)” value [1] is given as 8.67 MPa^0.5 and the “D (dispersion component)” value [2] is given as 15.8 MPa^0.5. The “H (hydrogen bonding component)” value [2] was 19.4 MPa^0.5 and the “P (polar component)” value [2] was 8.8 MPa^0.5.
For CC(C)=O [Acetone], the “Ra (Preferred Range)” value ([1]; distance per formula (I) with D1 16.4, P1 5.0, H1 11.7, preferred <= 9.9) is listed as 7.38 MPa^0.5, the “Ra (Allowable Range)” value ([1]; distance per formula (I) with D1 16.8, P1 4.8, H1 13.0, allowable <= 13.4) is listed as 8.61 MPa^0.5 and the “D (dispersion component)” value [2] is listed as 15.5 MPa^0.5. For the same compound, the “H (hydrogen bonding component)” value [2] was 7 MPa^0.5 and the “P (polar component)” value [2] was 10.4 MPa^0.5.
In the case of CCCCCCCCCCCCCC(=O)OC(C)C [Isopropyl Myristate], the “Ra (Allowable Range)” value [1] is listed as 10.70 MPa^0.5, the “Ra (Preferred Range)” value [1] is listed as 9.41 MPa^0.5 and the “D (dispersion component)” value [2] is listed as 15.9 MPa^0.5. The “H (hydrogen bonding component)” value [2] was 2.8 MPa^0.5 and the “P (polar component)” value [2] was 2.1 MPa^0.5.
In the case of OCCOc1ccccc1 [Phenoxyethanol], the “Ra (Allowable Range)” value [1] is reported as 2.55 MPa^0.5 and the “Ra (Preferred Range)” value [1] is reported as 3.88 MPa^0.5.
In the case of CCCCCCCCCCC(CO)CCCCCCCC (centres unmarked) [Octyldodecanol], the “Ra (Allowable Range)” value [1] is listed as 6.33 MPa^0.5, the “Ra (Preferred Range)” value [1] is listed as 5.17 MPa^0.5 and the “D (dispersion component)” value [2] is listed as 16.1 MPa^0.5. For the same compound, the “H (hydrogen bonding component)” value [2] was 7.4 MPa^0.5 and the “P (polar component)” value [2] was 2.2 MPa^0.5.
For CC(C)O [Isopropyl Alcohol], the “Ra (Allowable Range)” value [1] is given as 7.02 MPa^0.5, the “Ra (Preferred Range)” value [1] is given as 5.54 MPa^0.5 and the “D (dispersion component)” value [2] is given as 15.8 MPa^0.5. The “H (hydrogen bonding component)” value [2] was 6.4 MPa^0.5 and the “P (polar component)” value [2] was 6.1 MPa^0.5.
